# Reference: paper PMC11488110 (Theranostics, 2024)
# Entries after “also recorded” stand apart in the source; their conditions may differ.
# How the values were obtained:
# hPPARγ = molecular target: T1, hPPARγ (Homo sapiens, UniProt P37231); test: In vitro co-transfection (PPRE-luciferase) assay in CV-1 cells, hPPARγ; format: cell-based; conditions: 24 h, read-out: Potency (EC50) hPPARγ
# T1 sequence (P37231 1-505): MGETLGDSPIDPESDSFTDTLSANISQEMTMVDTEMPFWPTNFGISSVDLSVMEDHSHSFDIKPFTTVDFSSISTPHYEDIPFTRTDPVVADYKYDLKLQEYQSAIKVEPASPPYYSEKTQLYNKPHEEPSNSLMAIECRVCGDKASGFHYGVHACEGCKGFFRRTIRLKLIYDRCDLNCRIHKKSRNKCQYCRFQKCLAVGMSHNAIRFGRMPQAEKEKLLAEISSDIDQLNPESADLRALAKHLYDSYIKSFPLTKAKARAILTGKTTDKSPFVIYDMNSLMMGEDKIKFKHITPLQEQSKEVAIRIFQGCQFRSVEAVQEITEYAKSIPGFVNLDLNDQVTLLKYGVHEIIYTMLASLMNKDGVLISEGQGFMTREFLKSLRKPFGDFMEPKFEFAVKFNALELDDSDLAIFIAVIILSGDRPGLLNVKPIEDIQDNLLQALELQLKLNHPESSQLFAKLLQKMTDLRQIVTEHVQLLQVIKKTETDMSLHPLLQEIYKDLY
# [1] = Metabolic stability assay in liver microsomes; format: in vitro ADME, rat; conditions: 1 μM, 30 min
# Procedure: The metabolic stability assay was performed by incubation of human and selected animal liver microsomes (dog, rat, and mouse) with the test compound at a final concentration of 1 μM, in the presence of 0.5 mg/ml microsomal protein and NADPH-regeneration system, in a total volume of 100 μL phosphate buffer 100 mM (pH 7.4) at 37 °C. The incubation was started by introducing the NADPH-regeneration system and terminated by adding 40 μL of ice-cold acetonitrile at 0- and 30 min. Precipitated proteins were removed by centrifugation at 10,000 g and 4 °C for 5 min. Aliquots of the supernatant were injected onto an LC-MS/MS system. Incubations terminated prior to addition of the NADPH-regeneration system (time point, 0 min) were used as standards, defined as 100%. Percent of the parent compound remaining was calculated by comparing peak areas.
# Ta b l e S2 . CYP inhibition, microsomal stability, and hERG in hibition of 5a .
# CYP inhibitiona Microsomal stabilityb
# ( % of c ont rol ac ti vit y) (% of remaining compound) hERG inhibitionc (IC50, μ M) […]
# aCytochrome P450 (CYP450) enzyme activity was measured by incubating CYP450 enzyme isotype-specific substrates and liver microsomes in the presence of the test compound (10 μM) for 15 min. […]
# BV-2 microglial cells = test: Cytotoxicity assay (EZ-Cytox) in BV-2 microglia; format: cell-based, mouse; conditions: up to 20 μM, 24 h
# Procedure: The in vitro cytotoxicity of 5a was evaluated using the EZ-Cytox assay kit (DoGenBio, South Korea). […] Absorbance was measured at 450 nm, after 1 h of incubation with EZ-Cytox containing water-soluble tetrazolium salt (WST), using a SpectraMax®i3 microplate reader (Molecular Devices).
# primary mouse astrocytes = test: LPS/IFNγ-induced inflammatory responses in primary mouse astrocytes; format: cell-based
# SH-SY5Y cells = test: BACE1 expression (western blot) in SH-SY5Y cells; format: cell-based, human; conditions: 24 h
# Procedure: For the in vitro co-transfection assay, CV-1 monkey kidney cells were cultured in Dulbecco's modified Eagle's medium (DMEM) supplemented with 10% resin-charcoal-stripped fetal bovine serum (FBS), 100 U/mL penicillin, and 100 µg/mL streptomycin. To investigate the anti-inflammatory effects of 5a, BV-2 microglial cells were cultured in RPMI 1640 (Biowest) supplemented with 10% heat-inactivated FBS (Biowest), 2.05 mM L-glutamine (Gibco), and 100 U/mL penicillin/streptomycin (Gibco). Primary mouse astrocytes were isolated from postnatal day 1 C57BL/6N mouse pups. The cerebral cortices collected with the meninges removed were triturated by gentle pipetting and centrifuged. Primary astrocytes were resuspended and cultured in DMEM supplemented with 10% heat-inactivated FBS (Biowest), 10% heat-inactivated horse serum (Gibco), and 100 U/mL penicillin/streptomycin (Gibco). […]
# Total proteins were extracted from cells or mouse brain tissues using radioimmunoprecipitation assay (RIPA) buffer (Sigma-Aldrich) containing a protease and phosphatase inhibitor cocktail (Roche Diagnostics). […] Protein concentrations were determined using Pierce® BCA Protein Assay Kit (Thermo Fisher Scientific). […] The western blot bands were analyzed using ImageJ software (NIH) and β-Actin or glyceraldehyde 3-phosphate dehydrogenase (GAPDH) were used as a loading control. […]
# [2] = system: C57BL/6N mice with scopolamine-induced cognitive impairment; test: Scopolamine-induced memory impairment mouse model; format: in vivo
# [3] = 30 mg/kg/day p.o. 5 days before scopolamine 1 mg/kg i.p.
smiles,measurement,setting,value
"Cc1cc(SCc2[se]c(-c3ccc(C(F)(F)F)cc3)nc2C)ccc1OCC(=O)O [Compound 5a, {2-Methyl-4-[4-methyl-2-(4-trifluoromethyl-phenyl)-selenazol-5-yl-methylsulfanyl]-phenoxy}-acetic acid]",EC50,hPPARγ,> 10 µM
same,"Microsomal stability, Rat (% of remaining compound)",[1],73.3 % of remaining compound
same,Viability of BV-2 cells,BV-2 microglial cells,did not affect the viability; also recorded: less cytotoxic than GW501516
same,LPS/IFNγ-induced NO release,primary mouse astrocytes; primary astrocytes,significantly reduced NO release
same,"LPS/IFNγ-induced production of TNF-α, IL-1β and IL-6",primary mouse astrocytes; primary astrocytes,suppressed the production of pro-inflammatory cytokines
same,Anti-inflammatory effects on astrocytes compared with GW501516,primary mouse astrocytes; same concentration,superior to those of GW501516
same,BACE1 expression in SH-SY5Y cells,SH-SY5Y cells,dose-dependently reduced the expression of BACE1
same,Y-maze spontaneous alternation,[2]; [3],prevented the decrease in alternation percentage
same,Y-maze total number of arm entries,[2]; [3],without inducing any changes
same,Passive avoidance step-through latency,"[2]; 30 mg/kg/day p.o., scopolamine 1 mg/kg i.p.",mitigated this effect
same,"Memory in Y-maze, passive avoidance and Morris water maze","[2]; post-administration, 10 mg/kg p.o.",significantly restored the memory impairment
same,"Memory in Y-maze, passive avoidance and Morris water maze","[2]; post-administration, 30 mg/kg p.o.",maximum efficacy
same,Cognitive improvement compared with GW501516,"[2]; post-administration, same dose 30 mg/kg",superior in vivo efficacy
